{"source": "patent US10722496B2", "about": "“2-iminobiotin for use in the treatment of brain cell injury” (Neurophyxia B.V., priority 2015, dated 2020)", "key": {"[1]": {"tested_on": "IMR-32 cells", "test": "Metabolic activity assay (MTS)", "assay_type": "cell-based, human", "experimental": "In vitro hypoxia was induced in the cell cultures by using our recently described system with minor modifications (Huang et al., 2013b; Weber et al., 2015; Zitta et al., 2010). Enzyme stock solutions (100×) of catalase and glucose oxidase (both from Sigma-Aldrich) were prepared in cell culture medium (DMEM/F12, 1% FCS; final concentration: 120 U/ml and 2 U/ml respectively; Sigma-Aldrich) leading to a decrease of partial pressure of oxygen (pO2) below 10 mmHg within 5 minutes. Hypoxic conditions were confirmed by using a tissue oxygen pressure monitor (LICOX® CMP Oxygen Catheter; Integra, Plainsboro, USA). After 7 hours of hypoxia, the cells were washed twice with PBS (PAA) and fresh normoxic medium supplemented with solvent (citrate buffer 1%) or 2-IB (10, 30, 50, 100 and 300 ng/mL) was added to the cells. Investigations of cell damage, metabolic activity, ROS, hydrogen peroxide, nitrite/nitrate production, erkl/2, akt and stat5 phosphorylation as well as cell stress protein expression were performed with cell culture media or cell protein (FIG. 1).\nMetabolically active cells were evaluated by using a colorimetric kit (CELLTITER96® AQueous One Solution Reagent G3580 Promega Madison, Wis., USA). Samples were prepared concerning to the manufacturer's protocol. Briefly, 4×10^4 cells were seeded per well in a 96-well plate with 100 μl DMEM/F12 supplemented with 10% FCS per well. After 2 days in culture, normoxia or hypoxia was applied for 7 hours followed by the addition of 2-IB or the respective solvent control (citrate 1%) for 17 hours. After that, 20 μl of […] reagent were added to each well for 2.5 hours at 37° C. Metabolic active cells generate a colored product, the absorbance of which was measured at 490 nm using an ELISA reader (Tecan, Crailsheim, Austria) in combination with the Magellan software v1.1."}, "[2]": {"tested_on": "IMR-32 cell cultures", "test": "Hydrogen peroxide after hypoxia under mild hypothermia", "assay_type": "cell-based, human", "settings": "post-hypoxic application", "experimental": "(§1) In-vitro hypoxia was induced for 7 hours using IMR-32 cell cultures. After the hypoxic insult, cultures were subjected to 25 hours of mild hypothermia (33.5° C.) and were incubated with or without 2-IB (10, 30, 50, 100 and 300 ng/ml). Cell morphology was evaluated by brightfield microscopy and cell damage was analyzed by LDH assays. Production of reactive oxygen species (ROS) was measured using fluorometric assays. Western blotting for PARP and phosphorylated as well as unphosphorylated akt and erkl/2 was performed."}, "[3]": {"test": "Toxicokinetics, repeated i.v. pulse infusions to adult rats", "assay_type": "in vivo, rat", "settings": "for mean AUC 0-4-hour: 6.6 mg/kg per 15-minute i.v. pulse, first and last pulse", "experimental": "The toxicokinetics of 2-IB was studied over a 96-hour period by i.v. pulse infusions to adult rats. The purpose of this study was to generate toxicokinetic parameters (Cmax, tmax, AUC, t1/2) from 2-IB plasma concentrations in male and female rats after repeated i.v. infusion.\nGroup 1 received vehicle only. Systemic exposure was monitored on day 0 and day 4. Blood sampling was conducted at 15 minutes and 0.5, 1 and 4 hours after the first infusion, and 15 minutes and 0.5, 1, 4, 8 and 24 hours following the last dose."}, "[4]": {"tested_on": "4VO rat model", "test": "Histology, living neurons in CA1 region of hippocampus after 4VO", "assay_type": "in vivo", "settings": "33 days after insult", "experimental": "The rats were anesthetized using ketamine (90 mg/kg) and xylazine sodium ([…]), as described earlier (Meilin et al., 2014). The first cervical vertebrata was exposed and the vertebral arteries were permanently occluded by electrocauterization. The common carotid arteries were isolated through a ventral midline neck incision and lifted using a 4.0 silk suture ligature, placed around them.\nTwenty-four hours post vertebral arterial occlusion, the animals were reanesthetized using isoflurane. The common carotid arteries were exposed and occluded using microaneurysm clips for 15 minutes. After removing the clips reperfusion occurred. The skin of the incision at the neck was sutured using 4-0 silk suture. During the operation animal's core temperature was monitored using a rectal probe (Model 400; YSI Inc., Yellow Springs, Ohio, USA) connected to a thermometer (Model 8402-00; Cole-Parmer Instrument Co. Ltd, London, UK). The ischemic insult was initiated when a rectal temperature of 37-38° C. was achieved, and this temperature was maintained throughout the procedure using a heating mattress.\nDuring the acclimatization period rats were randomly assigned to experimental groups. The animals were subjected to 4VO per cage or one rat per cage was subjected to HI. Rats received either vehicle (normal saline at pH 3.8-4.0) or 2-IB (1.1 mg/kg, 3.3 mg/kg, 10 mg/kg and 30 mg/kg dissolved in 5 ml/kg normal saline at pH 3.8-4.0). Each dosing group was kept in separate cages to avoid cross-contamination by consuming stools during the study period. The experimental groups were as follows.\nRats were sacrificed at 33 days after the insult with an overdose of pentobarbital sodium (100 mg/kg i.p.). Histological analysis was performed in at least 9 rats for each group. The brains of the other 3 rats per group were snap frozen in liquid nitrogen and were stored for future analysis. The brain was perfused via the left ventricle with heparinised normal saline to remove the excess of blood from the brain. Afterwards the brain was perfused with 4% paraformaldehyde phosphate-buffered saline. The whole brain was removed and immersed in formaldehyde for at least another 72 hours. Brains were embedded in paraffin. Coronal sections ([…]) were cut at approximately 3.3 mm from the bregma and stained with hematoxylin-eosin. Sections were scored in a blinded way for living neurons in the right and left part of the CA1 region of the hippocampus, the most damaged area in this model of global ischemia. This was also considered a secondary outcome parameter."}, "[5]": {"tested_on": "IMR-32 cell cultures", "test": "LDH assay after hypoxia under mild hypothermia", "assay_type": "cell-based, human", "settings": "30 ng/ml 2-IB post-hypoxic, 25 hours mild hypothermia (33.5° C.)", "experimental": "as §1"}}}
{"smiles": "N=C1N[C@H]2[C@H](CS[C@H]2CCCCC(=O)O)N1", "note": "[2-IB, 2-iminobiotin]", "values": [{"measurement": "metabolic activity", "setting": "[1]; 10 ng/ml 2-IB, hypoxia", "value": "0.44±0.10", "unit": "a.u."}, {"measurement": "metabolic activity", "setting": "[1]; 10 ng/ml 2-IB, normoxia, 17 hours after hypoxia", "value": "0.44±0.08", "unit": "a.u."}, {"measurement": "metabolic activity", "setting": "[1]; 30 ng/ml 2-IB, hypoxia", "value": "0.45±0.09", "unit": "a.u."}, {"measurement": "metabolic activity", "setting": "[1]; 30 ng/ml 2-IB, normoxia", "value": "0.49±0.08", "unit": "a.u."}, {"measurement": "metabolic activity", "setting": "[1]; 50 ng/ml 2-IB, hypoxia", "value": "0.41±0.06", "unit": "a.u."}, {"measurement": "metabolic activity", "setting": "[1]; 50 ng/ml 2-IB, normoxia", "value": "0.50±0.08", "unit": "a.u."}, {"measurement": "metabolic activity", "setting": "[1]; 100 ng/ml 2-IB, hypoxia", "value": "0.33±0.06", "unit": "a.u."}, {"measurement": "metabolic activity", "setting": "[1]; 100 ng/ml 2-IB, normoxia", "value": "0.58±0.09", "unit": "a.u."}, {"measurement": "metabolic activity", "setting": "[1]; 300 ng/ml 2-IB, hypoxia", "value": "0.33±0.07", "unit": "a.u."}, {"measurement": "metabolic activity", "setting": "[1]; 300 ng/ml 2-IB, normoxia", "value": "0.63±0.09", "unit": "a.u."}, {"measurement": "hypoxia-induced reduction of metabolic activity, most efficient concentrations", "setting": "[1]; 10-300 ng/ml tested, P<0.01 vs. control", "value": "most efficiently counteracted by 10, 30 and 50 ng/ml 2-IB"}, {"measurement": "generation of hydrogen peroxide", "setting": "[2]", "value": "did not influence generation of hydrogen peroxide"}, {"measurement": "mean AUC 0-4-hour", "setting": "[3]; 1st of four values printed for male and female rats", "value": 2310, "unit": "ng·h/mL"}, {"measurement": "mean AUC 0-4-hour", "setting": "[3]; 2nd of four values printed for male and female rats", "value": 2530, "unit": "ng·h/mL"}, {"measurement": "mean AUC 0-4-hour", "setting": "[3]; 3rd of four values printed for male and female rats", "value": 1750, "unit": "ng·h/mL"}, {"measurement": "mean AUC 0-4-hour", "setting": "[3]; 4th of four values printed for male and female rats", "value": 1950, "unit": "ng·h/mL"}, {"measurement": "overall mean AUC 0-4-hour", "setting": "[3]; 6.6 mg/kg per pulse, across sexes and first and last pulses", "value": "about 2135 ng·h/mL"}, {"measurement": "AUC expected", "setting": "[3]; rat, 3.3 mg/kg dose level, assuming linear PK", "value": "about 1068 ng·h/mL"}, {"measurement": "surviving cells in the CA1 region", "setting": "[4]; 1.1 mg/kg/dose s.c.", "value": "29±34"}, {"measurement": "surviving cells in the CA1 region", "setting": "[4]; 3.3 mg/kg/dose s.c.", "value": "71±61"}, {"measurement": "surviving cells in the CA1 region", "setting": "[4]; 10 mg/kg/dose s.c.", "value": "63±54"}, {"measurement": "surviving cells in the CA1 region", "setting": "[4]; 30 mg/kg/dose s.c.", "value": "50±51"}, {"measurement": "hypoxia-induced LDH release", "setting": "[5]", "value": "reduced the hypoxia-induced LDH release even under hypothermia"}]}
